Experimental data published in the NIST ThermoML archive (doi:10.1016/j.jct.2009.07.014).
± gives the expanded uncertainty stated by the source.

Test: excess molar enthalpy (molar enthalpy of mixing); xn = mol fraction of the nth substance listed
Settings: 101.3 kPa, Liquid, Flow calorimetry

CCCCO [butan-1-ol] + CCCCCCC
excess molar enthalpy [kcal/mol]
Settings | 298.15 K | 313.15 K
x2 = 0.0502 | 0.0176 ± 0.000741 | 0.0246 ± 0.00098
x2 = 0.0999 | 0.0352 ± 0.00098 | –
x2 = 0.1 | – | 0.049 ± 0.00134
x2 = 0.1504 | 0.0519 ± 0.00129 | –
x2 = 0.1505 | – | 0.0727 ± 0.00177
x2 = 0.2 | 0.0674 ± 0.00158 | –
x2 = 0.2001 | – | 0.0944 ± 0.00217
x2 = 0.2498 | 0.0823 ± 0.00186 | –
x2 = 0.2499 | – | 0.115 ± 0.00263
x2 = 0.2998 | 0.096 ± 0.00215 | –
x2 = 0.2999 | – | 0.134 ± 0.00287
x2 = 0.3497 | 0.108 ± 0.00239 | –
x2 = 0.3498 | – | 0.151 ± 0.00335
x2 = 0.4004 | 0.119 ± 0.00263 | 0.166 ± 0.00359
x2 = 0.4496 | 0.129 ± 0.00287 | 0.179 ± 0.00382
x2 = 0.5001 | 0.137 ± 0.00311 | –
x2 = 0.5002 | – | 0.19 ± 0.00406
x2 = 0.5498 | 0.144 ± 0.00311 | –
x2 = 0.5499 | – | 0.198 ± 0.0043
x2 = 0.5996 | 0.148 ± 0.00311 | –
x2 = 0.5997 | – | 0.202 ± 0.0043
x2 = 0.6504 | 0.149 ± 0.00311 | –
x2 = 0.6505 | – | 0.204 ± 0.0043
x2 = 0.6999 | 0.147 ± 0.00311 | 0.202 ± 0.0043
x2 = 0.7501 | 0.143 ± 0.00311 | 0.197 ± 0.0043
x2 = 0.7998 | 0.135 ± 0.00287 | 0.189 ± 0.00406
x2 = 0.8502 | 0.125 ± 0.00263 | 0.175 ± 0.00382
x2 = 0.8997 | – | 0.155 ± 0.00359
x2 = 0.8998 | 0.11 ± 0.00239 | –
x2 = 0.9497 | 0.0863 ± 0.00203 | 0.121 ± 0.00287
